PubChem BioAssay (NCI)
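All cell lines were grown in 96-well plates and treated with compound for 48 hours. GI50 marks 50% less growth. TGI denotes the concentration required for complete inhibition of growth.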

What was measured:
Assay in all cases: NCI tumour cell line growth inhibition, 48 h
A498 renal = test system: A498 renal
BT-549 breast = test system: BT-549 breast
DU-145 prostate = test system: DU-145 prostate
HCC-2998 colon = test system: HCC-2998 colon
HOP-92 NSCLC = test system: HOP-92 NSCLC
HS 578T breast = test system: HS 578T breast
KM12 colon = test system: KM12 colon
M14 melanoma = test system: M14 melanoma
MDA-MB-231 breast = test system: MDA-MB-231 breast
OVCAR-5 ovarian = test system: OVCAR-5 ovarian
PC-3 prostate = test system: PC-3 prostate
SF-295 CNS = test system: SF-295 CNS
SF-539 CNS = test system: SF-539 CNS
SK-OV-3 ovarian = test system: SK-OV-3 ovarian
SNB-75 CNS = test system: SNB-75 CNS
TK-10 renal = test system: TK-10 renal
UACC-62 melanoma = test system: UACC-62 melanoma

Structure (SMILES): O=C1/C(=C\c2cn(CC(O)CN3CCCCC3)c3ccccc23)c2ccccc2N1c1c(Cl)cccc1Cl (centres undefined)
- GI50 (A498 renal): 1.7 µM
- TGI (A498 renal): 3.24 µM
- GI50 (BT-549 breast): 1.71 µM
- TGI (BT-549 breast): 3.18 µM
- GI50 (DU-145 prostate): 1.88 µM
- TGI (DU-145 prostate): 3.32 µM
- GI50 (HCC-2998 colon): 1.73 µM
- TGI (HCC-2998 colon): 3.16 µM
- GI50 (HOP-92 NSCLC): 1.59 µM
- TGI (HOP-92 NSCLC): 3.2 µM
- GI50 (HS 578T breast): 2.27 µM
- TGI (HS 578T breast): 5.78 µM
- GI50 (KM12 colon): 1.89 µM
- TGI (KM12 colon): 3.37 µM
- GI50 (M14 melanoma): 1.66 µM
- TGI (M14 melanoma): 3.1 µM
- GI50 (MDA-MB-231 breast): 1.79 µM
- TGI (MDA-MB-231 breast): 3.21 µM
- GI50 (OVCAR-5 ovarian): 1.57 µM
- TGI (OVCAR-5 ovarian): 2.92 µM
- GI50 (PC-3 prostate): 1.41 µM
- TGI (PC-3 prostate): 2.81 µM
- GI50 (SF-295 CNS): 1.8 µM
- TGI (SF-295 CNS): 3.3 µM
- GI50 (SF-539 CNS): 1.68 µM
- TGI (SF-539 CNS): 3.18 µM
- GI50 (SK-OV-3 ovarian): 1.63 µM
- TGI (SK-OV-3 ovarian): 3.13 µM
- GI50 (SNB-75 CNS): 1.3 µM
- TGI (SNB-75 CNS): 2.63 µM
- GI50 (TK-10 renal): 1.82 µM
- TGI (TK-10 renal): 3.29 µM
- GI50 (UACC-62 melanoma): 1.76 µM
- TGI (UACC-62 melanoma): 3.2 µM
